Values quoted from earlier work in patent US9442092B2, “Methods for treatment of autism” (priority 2011, dated 2016).

Columns and labels:
[1] = in vivo

| Compound | Association with Autism [1] | Increase of HIV levels (HIV) |
| --- | --- | --- |
| CC(C)Cc1ccc(C(C)C(=O)O)cc1 (stereo not drawn) [Ibuprofen] | no association |  |
| COc1cc2c(c3oc(=O)c4c(c13)CCC4=O)[C@@H]1C=CO[C@@H]1O2 [Aflatoxin] |  | 500% |
| CN1C(=O)[C@]23CC4=CC=C[C@H](O)[C@H]4N2C(=O)[C@@]1(CO)SS3 [gliotoxin, Gliotoxin] |  | 500% |
